Columns and labels:
H460 (lung carcinoma) = test: MTT in vitro growth inhibition assay, H460; format: cell-based; details: Homo sapiens; for inhibition at 25 µM: NCI-H460, 25 µM of drug, 72 h, read-out: Percentage of Cell Growth Inhibition H460; for GI50: NCI-H460, 72 h drug exposure
Text: (§1) With the desired bolinaquinone analogues 12–43 in hand, we examined their cytotoxicity against a panel of 11 tumour cell lines: HT29 (colon carcinoma), U87 and SJ-G2 (glioblastoma), MCF-7 (breast carcinoma), A2780 (ovarian carcinoma), H460 (lung carcinoma), A431 (skin carcinoma), Du145 (prostate carcinoma), BE2-C (neuroblastoma), MIA (pancreatic carcinoma), SMA (spontaneous murine astrocytoma) and a normal breast cell line (MCF10A). The inclusion of the MCF-10A cell line allowed a determination of a crude measure of relative toxicity while noting that the ultimate arbiter of toxicity requires in vivo evaluation. All analogues were initially screened at a 25 µM drug concentration.
(§2) Stock solutions were prepared as follows and stored at −20°C: drugs were stored as 40 mM solutions in DMSO. All cell lines were cultured in a humidified atmosphere 5% CO2 at 37°C. The cancer cell lines were maintained in Dulbecco's modified Eagle's medium (DMEM) (Trace Biosciences, Australia) supplemented with 10% fetal bovine serum, 10 mM sodium bicarbonate, penicillin (100 IU ml^−1), streptomycin (100 µg ml^−1) and glutamine (4 mM). The non-cancer MCF10A cell line was cultured in DMEM:F12 (1 : 1) cell culture media, 5% heat-inactivated horse serum, supplemented with penicillin (50 IU ml^−1), streptomycin (50 µg ml^−1), 20 mM Hepes, L-glutamine (2 mM), epidermal growth factor (20 ng ml^−1), hydrocortisone (500 ng ml^−1), cholera toxin (100 ng ml^−1) and insulin (10 ug ml^−1).
(§3) Cells in logarithmic growth were transferred to 96-well plates. Cytotoxicity was determined by plating cells in duplicate in 100 µl medium at a density of 2500–4000 cells per well. On day 0 (24 h after plating), when the cells were in logarithmic growth, 100 μl of medium with or without the test agent was added to each well. After 72 h, drug exposure growth inhibitory effects were evaluated using the MTT (3-[4,5-dimethylthiazol-2-yl]-2,5-diphenyl-tetrazolium bromide) assay and the absorbance read at 540 nm. Percentage growth inhibition was determined at a fixed drug concentration of 25 µM. A value of 100% is indicative of complete cell growth inhibition. Those analogues showing appreciable percentage growth inhibition underwent further dose–response analysis allowing for the calculation of a GI50 value. This value is the drug concentration at which cell growth is 50% inhibited based on the difference between the optical density values on day 0 and those at the end of drug exposure.

U87 (glioblastoma) = test: MTT in vitro growth inhibition assay, U87; format: cell-based; details: for inhibition at 25 µM: 25 µM of drug, 72 h, read-out: Percentage of Cell Growth Inhibition U87; for GI50: 72 h drug exposure
Text: as §1, §2, §3

A431 (skin carcinoma) = test: MTT in vitro growth inhibition assay, A431; format: cell-based; details: Homo sapiens; for inhibition at 25 µM: A-431, 25 µM of drug, 72 h, read-out: Percentage of Cell Growth Inhibition A431; for GI50: A-431, 72 h, 72 h drug exposure
Text: as §1, §2, §3

[1] = tested on: SMA (spontaneous murine astrocytoma); test: MTT in vitro growth inhibition assay, SMA; format: cell-based; details: Mus musculus; for inhibition at 25 µM: 25 µM of drug, 72 h, read-out: Percentage of Cell Growth Inhibition SMA; for GI50: 72 h drug exposure
Text: as §1, §2, §3

SJ-G2 (glioblastoma) = test: MTT in vitro growth inhibition assay, SJ-G2; format: cell-based; details: for inhibition at 25 µM: 25 µM of drug, 72 h, read-out: Percentage of Cell Growth Inhibition SJ-G2; for GI50: 72 h drug exposure
Text: as §1, §2, §3

BE2-C (neuroblastoma) = test: MTT in vitro growth inhibition assay, BE2-C; format: cell-based; details: Homo sapiens, BE(2)-C, 72 h; for inhibition at 25 µM: 25 µM of drug, read-out: Percentage of Cell Growth Inhibition BE2-C; for GI50: 72 h drug exposure
Text: as §1, §2, §3

[2] = tested on: A2780 (ovarian carcinoma); test: MTT in vitro growth inhibition assay, A2780; format: cell-based; details: Homo sapiens; for inhibition at 25 µM: 25 µM of drug, 72 h, read-out: Percentage of Cell Growth Inhibition A2780; for GI50: 72 h drug exposure
Text: as §1, §2, §3

[3] = tested on: Du145 (prostate carcinoma); test: MTT in vitro growth inhibition assay, Du145; format: cell-based; details: Homo sapiens, DU-145, 25 µM of drug, 72 h, read-out: Percentage of Cell Growth Inhibition Du145
Text: as §1, §2, §3

[4] = tested on: MIA (pancreatic carcinoma); test: MTT in vitro growth inhibition assay, MIA; format: cell-based; details: for inhibition at 25 µM: 25 µM of drug, 72 h, read-out: Percentage of Cell Growth Inhibition MIA; for GI50: 72 h drug exposure
Text: as §1, §2, §3

[5] = tested on: MCF10A (normal breast cell line); test: MTT in vitro growth inhibition assay, MCF10A; format: cell-based; details: Homo sapiens, MCF-10A; for inhibition at 25 µM: 25 µM of drug, 72 h, read-out: Percentage of Cell Growth Inhibition MCF10A; for GI50: normal breast cell line, 72 h drug exposure
Text: as §1, §2, §3

HT29 (colon carcinoma) = test: MTT in vitro growth inhibition assay, HT29; format: cell-based; details: Homo sapiens; for inhibition at 25 µM: HT-29, 25 µM of drug, 72 h, read-out: Percentage of Cell Growth Inhibition HT29; for GI50: HT-29, 72 h drug exposure
Text: as §1, §2, §3

MCF-7 (breast carcinoma) = test: MTT in vitro growth inhibition assay, MCF-7; format: cell-based; details: Homo sapiens; for inhibition at 25 µM: MCF7, 25 µM of drug, 72 h, read-out: Percentage of Cell Growth Inhibition MCF-7; for GI50: MCF7, 72 h drug exposure
Text: as §1, §2, §3

SMILES | inhibition at 25 µM (H460 (lung carcinoma)) | inhibition at 25 µM (U87 (glioblastoma)) | GI50 (U87 (glioblastoma)) | inhibition at 25 µM (A431 (skin carcinoma)) | inhibition at 25 µM [1] | GI50 [1] | inhibition at 25 µM (SJ-G2 (glioblastoma)) | GI50 (SJ-G2 (glioblastoma)) | inhibition at 25 µM (BE2-C (neuroblastoma)) | GI50 (BE2-C (neuroblastoma)) | inhibition at 25 µM [2] | GI50 [2] | inhibition at 25 µM [3] | inhibition at 25 µM [4] | GI50 [4] | inhibition at 25 µM [5] | inhibition at 25 µM (HT29 (colon carcinoma)) | inhibition at 25 µM (MCF-7 (breast carcinoma)) | GI50 (MCF-7 (breast carcinoma)) | GI50 [5] | further results
COC1=CC(=O)C(OC)=C(c2ccccc2)C1=O [compound 12, 2,5-Dimethoxy-3-phenylcyclohexa-2,5-diene-1,4-dione] | < 10% | 12 ± 2% | 47 ± 2.2 µM | 10 ± 3% | 49 ± 8% | 29 ± 3.2 µM | 27 ± 6% | 27 ± 0.9 µM | > 100% | 10 ± 1.1 µM | 75 ± 7% | 18 ± 0.7 µM | < 10% | 31 ± 5% | 29 ± 1.5 µM | < 10% | 24 ± 1% | 40 ± 3% | 22 ± 3.4 µM |  | GI50 (H460 (lung carcinoma)): > 50 µM; GI50 (A431 (skin carcinoma)): 40 ± 4.5 µM; GI50 (HT29 (colon carcinoma)): 42 ± 6.2 µM; melting point: 122 to 124 °C
COC1=CC(=O)C(OC)=C(c2ccc(C)cc2)C1=O [compound 13, 2,5-Dimethoxy-3-p-tolylcyclohexa-2,5-diene-1,4-dione] | 13 ± 3% | 13 ± 4% | > 50 µM | < 10% | 45 ± 9% | 33 ± 2.3 µM | 41 ± 18% | 33 ± 1.9 µM | > 100% | 12 ± 1.2 µM | 72 ± 10% | 20 ± 1.2 µM | 13 ± 2% | < 10% | > 50 µM | 10 ± 5% | 10 ± 4% | 23 ± 3% | 37 ± 1 µM | 50 ± 9.2 µM | GI50 (H460 (lung carcinoma)): > 50 µM; GI50 (A431 (skin carcinoma)): > 50 µM; GI50 (HT29 (colon carcinoma)): > 50 µM
COC1=CC(=O)C(OC)=C(c2ccc(O)cc2)C1=O [compound 16, 3-(4-Hydroxyphenyl)-2,5-dimethoxycyclohexa-2,5-diene-1,4-dione] | < 10% | < 10% |  | > 100% |  | 50 ± 3.2 µM | 21 ± 9% | 43 ± 1.5 µM | < 10% | ~11 µM | < 10% | 35 ± 1.9 µM | 21 ± 6% | < 10% |  |  | 11 ± 3% | 15% |  |  | 
COC1=CC(=O)C(OC)=C(c2ccc(CO)cc2)C1=O [compound 17, 3-(4-(Hydroxymethyl)phenyl)-2,5-dimethoxycyclohexa-2,5-diene-1,4-diene] | < 10% | < 10% | 45 ± 2.3 µM | < 10% | 21 ± 10% | 37 ± 0.7 µM | 22 ± 4% | 33 ± 1.3 µM | > 100% | ~11 µM | 53 ± 5% | 22 ± 0.9 µM | < 10% | < 10% | 37 ± 1 µM | < 10% | < 10% | < 10% | 36 ± 2 µM | 49 µM | melting point: 116 to 118 °C
COC1=CC(=O)C(OC)=C(c2ccc(OC)cc2OC)C1=O [compound 20, 2,5-Dimethoxy-3-(2,4-dimethoxyphenyl)cyclohexa-2,5-diene-1,4-dione] | 10 ± 5% | 17 ± 3% |  | 11 ± 4% | 35 ± 8% | 33 ± 3.5 µM | 32 ± 6% | 31 ± 1.5 µM | > 100% | ~11 µM | 48 ± 9% | 25 ± 3 µM | < 10% | < 10% |  | 14 ± 6% | 15 ± 2% | 20 ± 3% | 34 ± 3 µM | 38 ± 5 µM | 

— PMC5936891, “A focused library synthesis and cytotoxicity of quinones derived from the natural product bolinaquinone” (Royal Society Open Science, 2018)
